Type in all cases: cell-based
In one experiment the test system is HepaRG cells. Kind of experiment: HepaRG-based assay: 3H-taurocholic acid uptake in differentiated HepaRG cells. As to conditions: 0.3 μM 3H-taurocholic acid and 7.5 μM cold taurocholic acid, 30 minutes. In outline:
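Differentiated HepaRG cells cultured 7 days post-seeding were exposed for 30 min at 37 °C to 0.3 μM 3H-taurocholic acid plus 7.5 μM cold taurocholic acid with inhibitor (3-fold dilutions, 0.2% DMSO). Uptake was stopped on ice, washed with 1 mM unlabelled taurocholic acid, and counted by scintillation.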

The target in a further experiment is T1, Human LBAT (Homo sapiens, UniProt Q14973).
T1 construct: expressed in transfected cells; kept under Geneticin selection
T1 sequence (Q14973 1-349): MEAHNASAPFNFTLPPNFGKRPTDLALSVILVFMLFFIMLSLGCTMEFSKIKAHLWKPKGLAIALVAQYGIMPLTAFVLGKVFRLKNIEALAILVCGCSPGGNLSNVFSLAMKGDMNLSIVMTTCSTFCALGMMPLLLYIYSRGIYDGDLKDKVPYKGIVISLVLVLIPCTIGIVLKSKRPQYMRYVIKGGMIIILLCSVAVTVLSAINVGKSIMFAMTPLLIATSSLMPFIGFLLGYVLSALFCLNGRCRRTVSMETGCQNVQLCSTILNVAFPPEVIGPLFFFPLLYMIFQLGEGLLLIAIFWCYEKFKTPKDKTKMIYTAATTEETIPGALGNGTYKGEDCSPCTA
Description: LBAT (h/m) assay: 3H-taurocholic acid uptake in human LBAT-overexpressing cells. Particulars: 0.3 μM 3H-taurocholic acid and 7.5 μM cold taurocholic acid, 20 minutes, read-out: hLBAT IC50. In outline:
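LBAT-overexpressing cells, serum-free MEM-alpha, 20 min at 37° C with inhibitor (3-fold, 10-point) plus 0.3 μM 3H-taurocholic acid and cold taurocholic acid (7.5 μM human; 25 μM mouse), 0.2% DMSO. Stopped on ice, washed with 1 mM unlabelled taurocholate; uptake by scintillation counting.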

Another experiment concerns the target T2, Human ASBT (Homo sapiens, UniProt Q12908).
T2 construct: expressed in transfected cells; kept under Puromycin selection
T2 sequence (Q12908 1-348): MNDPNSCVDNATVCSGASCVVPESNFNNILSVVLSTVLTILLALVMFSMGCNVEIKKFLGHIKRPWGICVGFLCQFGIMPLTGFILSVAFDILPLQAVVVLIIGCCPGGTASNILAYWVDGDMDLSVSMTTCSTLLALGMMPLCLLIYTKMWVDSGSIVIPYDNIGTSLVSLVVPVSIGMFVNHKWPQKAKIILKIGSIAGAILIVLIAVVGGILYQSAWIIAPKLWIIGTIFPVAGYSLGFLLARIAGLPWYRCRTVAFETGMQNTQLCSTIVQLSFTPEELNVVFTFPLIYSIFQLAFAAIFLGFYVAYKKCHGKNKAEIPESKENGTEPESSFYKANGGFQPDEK
Kind of experiment: ASBT (h/m) assay: 3H-taurocholic acid uptake in human ASBT-overexpressing cells. Particulars: 0.25 μM 3H-taurocholic acid and 5 μM cold taurocholic acid, 20 minutes, read-out: hASBT IC50. An outline of the steps:
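ASBT-overexpressing cells, seeded 48 h earlier, took up 0.25 µM 3H-taurocholic acid plus 5 µM cold taurocholate for 20 min at 37 °C with inhibitor (10-point 3-fold series, top 10 µM, 0.2% DMSO). Ice stop, washes with cold 1 mM taurocholate in HEPES-HBSS pH 7.4, scintillation counting.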

The structures appear in SMILES notation. Bounds are passed on as bounds.

With `CCCCC1(CC)CN(c2ccccc2)c2cc(I)c(O/C=C/C(=O)O)cc2S(=O)(=O)C1` (single isomer, unassigned) [Example 58, (E)-3-((3-butyl-3-ethyl-7-iodo-1,1-dioxido-5-phenyl-2,3,4,5-tetrahydro-1,5-benzothiazepin-8-yl)oxy)acrylic acid], the 50% inhibitory concentration (IC50) (as a rule, the point on the concentration scale where inhibition reaches its midpoint) with HepaRG cells was 1500 nM; at Human LBAT it was 84 nM; on Human ASBT, 24 nM.

On to `CCCC[C@]1(CC)CN(c2ccccc2)c2cc(Br)c(O/C=C(\F)C(=O)O)cc2S(=O)(=O)C1` (single isomer, unassigned) [Example 64], for which the half-inhibitory concentration (IC50) with HepaRG cells (Homo sapiens, HepaRG) stood at 455 nM; at Human LBAT, 28 nM; on Human ASBT, 524 nM.

Regarding `CCCC[C@@]1(CC)CN(c2ccccc2)c2cc(Br)c(O/C=C(\F)C(=O)O)cc2S(=O)(=O)C1` (single isomer, unassigned) [Example 65], the IC50 in the experiment with HepaRG cells (Homo sapiens, HepaRG) came to 265 nM; at Human LBAT it was 20 nM; on Human ASBT it was 27 nM.

As for `CCCC[C@@]1(CC)CN(c2ccccc2)c2cc(SC)c(O/C=C/C(=O)O)cc2S(=O)(=O)N1` (single isomer, unassigned) [Example 77], the IC50 with HepaRG cells (Homo sapiens, HepaRG) amounted to 5330 nM; at Human LBAT, 297 nM; on Human ASBT, 24 nM.

`CCCC[C@@]1(CC)CN(c2ccccc2)c2cc(SC)c(O/C=C(\F)C(=O)O)cc2S(=O)(=O)N1` (single isomer, unassigned) [Example 85]: the IC50 was 1110 nM in the experiment on HepaRG cells (Homo sapiens, HepaRG); 71 nM at Human LBAT; 7 nM at Human ASBT.

Consider `CCCC[C@]1(CC)CN(c2ccccc2)c2cc(SC)c(O/C=C(\F)C(=O)O)cc2S(=O)(=O)N1` (single isomer, unassigned) [Example 86], for which the concentration for half-maximal inhibition (IC50) with HepaRG cells (Homo sapiens, HepaRG) amounted to 527 nM; on Human LBAT, 31 nM; on Human ASBT, 88 nM.

Turning to `CCCC[C@]1(CC)CN(c2ccccc2)c2cc(SC)c(O/C=C(\F)C(=O)O)cc2S(=O)(=O)N1C` (single isomer, unassigned) [Example 100], the IC50 was 1450 nM in the experiment with HepaRG cells (Homo sapiens, HepaRG); 49 nM at Human LBAT; 631 nM on Human ASBT.

For the compound `CCCC[C@@]1(CC)CN(c2ccccc2)c2cc(N(C)C)c(O/C=C(\F)C(=O)O)cc2S(=O)(=O)C1` (single isomer, unassigned) [Example 109], the IC50 in the experiment with HepaRG cells (Homo sapiens, HepaRG) was greater than 2220 nM; at Human LBAT it was 68 nM; on Human ASBT, 6.5 nM.

Consider `CCCCC1(CCCC)CN(c2ccc(N)cc2)c2cc(SC)c(O/C=C/C(=O)O)cc2S(=O)(=O)C1` [Example 2, (E)-3-((5-(4-aminophenyl)-3,3-dibutyl-7-(methylthio)-1,1-dioxido-2,3,4,5-tetrahydro-1,5-benzothiazepin-8-yl)oxy)acrylic Acid], for which the IC50 in the experiment on HepaRG cells (Homo sapiens, HepaRG) is greater than 6670 nM; on Human LBAT, 1400 nM; at Human ASBT, 354 nM.

For the compound `CCCCC1(CCCC)CN(c2ccc(NC(=O)OC(C)(C)C)cc2)c2cc(SC)c(O/C=C/C(=O)O)cc2S(=O)(=O)C1` [Example 3, (E)-3-((5-(4-((tert-butoxycarbonyl)amino)phenyl)-3,3-dibutyl-7-(methylthio)-1,1-dioxido-2,3,4,5-tetrahydro-1,5-benzothiazepin-8-yl)oxy)acrylic Acid], the IC50 in the experiment with HepaRG cells (Homo sapiens, HepaRG) was 885 nM; at Human LBAT, 177 nM; at Human ASBT, greater than 10000 nM.

Consider `CCCCC1(CCCC)CN(c2ccccc2)c2cc(C3CC3)c(O/C=C/C(=O)O)cc2S(=O)(=O)C1` [Example 7, (E)-3-((3,3-dibutyl-7-cyclopropyl-1,1-dioxido-5-phenyl-2,3,4,5-tetrahydro-1,5-benzothiazepin-8-yl)oxy)acrylic Acid], for which the IC50 in the experiment on HepaRG cells (Homo sapiens, HepaRG) amounted to 3190 nM; on Human LBAT, 749 nM; at Human ASBT it was 217 nM.

Turning to `CCCCC1(CCCC)CN(c2ccc(NS(=O)(=O)C3CC3)cc2)c2cc(SC)c(O/C=C/C(=O)O)cc2S(=O)(=O)C1` [Example 9, (E)-3-((3,3-dibutyl-5-(4-(cyclopropanesulfonamido)phenyl)-7-(methylthio)-1,1-dioxido-2,3,4,5-tetrahydro-1,5-benzothiazepin-8-yl)oxy)acrylic Acid], the IC50 with HepaRG cells (Homo sapiens, HepaRG) amounted to 3080 nM; at Human LBAT, 1090 nM; on Human ASBT it was 1200 nM.

Consider `CCCCC1(CCCC)CN(c2ccc(NS(C)(=O)=O)cc2)c2cc(SC)c(O/C=C/C(=O)O)cc2S(=O)(=O)C1` [Example 10, (E)-3-((3,3-dibutyl-5-(4-(methylsulfonamido)phenyl)-7-(methylthio)-1,1-dioxido-2,3,4,5-tetrahydro-1,5-benzothiazepin-8-yl)oxy)acrylic Acid], for which the half-inhibitory concentration (IC50) in the experiment with HepaRG cells (Homo sapiens, HepaRG) was 4700 nM; at Human LBAT it was 3980 nM; at Human ASBT, 1410 nM.

On to `CCCCC1(CCCC)CN(c2ccccc2)c2cc(CC)c(O/C=C/C(=O)O)cc2S(=O)(=O)C1` [Example 12, (E)-3-((3,3-dibutyl-7-ethyl-1,1-dioxido-5-phenyl-2,3,4,5-tetrahydro-1,5-benzothiazepin-8-yl)oxy)acrylic Acid], for which the IC50 was found to be 2610 nM in the experiment with HepaRG cells (Homo sapiens, HepaRG); 393 nM on Human LBAT; 482 nM at Human ASBT.

For `CCCCC1(CC)CN(c2ccccc2)c2cc(OC)c(O/C=C/C(=O)O)cc2S(=O)(=O)C1` (stereo not drawn) [Example 13, (E)-3-((3-butyl-3-ethyl-7-methoxy-1,1-dioxido-5-phenyl-2,3,4,5-tetrahydro-1,5-benzothiazepin-8-yl)oxy)acrylic Acid], the IC50 amounted to 4460 nM in the experiment on HepaRG cells (Homo sapiens, HepaRG); 991 nM at Human LBAT; 144 nM on Human ASBT.

Turning to `CCCCC1(CCCC)CN(c2ccccc2)c2cc(OC)c(O/C=C/C(=O)O)cc2S(=O)(=O)C1` [Example 14, (E)-3-((3,3-dibutyl-7-methoxy-1,1-dioxido-5-phenyl-2,3,4,5-tetrahydro-1,5-benzothiazepin-8-yl)oxy)acrylic Acid], the IC50 with HepaRG cells (Homo sapiens, HepaRG) was found to be 5160 nM; on Human LBAT it was 1430 nM; at Human ASBT, 304 nM.

For the compound `CCCCC1(CCCC)CN(c2ccc(Br)cc2)c2cc(SC)c(O/C=C/C(=O)O)cc2S(=O)(=O)C1` [Example 15, (E)-3-((5-(4-bromophenyl)-3,3-dibutyl-7-(methylthio)-1,1-dioxido-2,3,4,5-tetrahydro-1,5-benzothiazepin-8-yl)oxy)acrylic Acid], the IC50 in the experiment with HepaRG cells (Homo sapiens, HepaRG) turned out to be 2250 nM; at Human LBAT it was 532 nM; at Human ASBT, 253 nM.

For the compound `CCCCC1(CCCC)CN(c2ccc(OC)cc2)c2cc(SC)c(O/C=C/C(=O)O)cc2S(=O)(=O)C1` [Example 19, (E)-3-((3,3-dibutyl-5-(4-methoxyphenyl)-7-(methylthio)-1,1-dioxido-2,3,4,5-tetrahydro-1,5-benzothiazepin-8-yl)oxy)acrylic Acid], the half-maximal inhibitory concentration (IC50) amounted to 2890 nM with HepaRG cells (Homo sapiens, HepaRG); 783 nM at Human LBAT; 128 nM at Human ASBT.

As to `CCCCC1(CC)CN(c2ccccc2)c2ccc(O/C=C/C(=O)O)cc2S(=O)(=O)C1` (stereo not drawn) [Example 21, (E)-3-((3-butyl-3-ethyl-1,1-dioxido-5-phenyl-2,3,4,5-tetrahydro-1,5-benzothiazepin-8-yl)oxy)acrylic Acid], the half-maximal inhibitory concentration (IC50) stood at 5230 nM in the experiment on HepaRG cells (Homo sapiens, HepaRG); 4150 nM at Human LBAT; 929 nM on Human ASBT.

Regarding `CCCCC1(CCCC)CN(c2ccc(NC(=O)OC)cc2)c2cc(SC)c(O/C=C/C(=O)O)cc2S(=O)(=O)C1` [Example 24, (E)-3-((3,3-dibutyl-5-(4-((methoxycarbonyl)amino)phenyl)-7-(methylthio)-1,1-dioxido-2,3,4,5-tetrahydro-1,5-benzothiazepin-8-yl)oxy)acrylic Acid], the IC50 with HepaRG cells (Homo sapiens, HepaRG) turned out to be 2280 nM; on Human LBAT, 225 nM; on Human ASBT, 4670 nM.

Turning to `CCCCC1(CCCC)CN(c2ccc(N(C)C)cc2)c2cc(SC)c(O/C=C/C(=O)O)cc2S(=O)(=O)C1` [Example 25, (E)-3-((3,3-dibutyl-5-(4-(dimethylamino)phenyl)-7-(methylthio)-1,1-dioxido-2,3,4,5-tetrahydro-1,5-benzothiazepin-8-yl)oxy)acrylic Acid], the half-inhibitory concentration (IC50) in the experiment on HepaRG cells (Homo sapiens, HepaRG) came to 3310 nM; at Human LBAT it was 351 nM; on Human ASBT, 370 nM.

Source of the values: US11306064B2, “Benzothia(di)azepine compounds and their use as bile acid modulators” (Albireo AB, priority 2018, dated 2022).
